Measured values reported in patent US8921563B2, “1-[(4-hydroxypiperidin-4-yl)methyl]pyridin-2(1H)-one derivatives, preparation methods and uses thereof” (Institue of Pharmacology and Toxicology Academy of Military …, priority 2010, dated 2014).

Key:
5-HT1A receptor = biological target: T1, 5-HT1A receptor (Rattus norvegicus, UniProt P19327); experiment: Competitive binding test of YL-0911 and positive drugs to 5-HT1A receptor (extracted from hippocampi); conditions: [3H]-8-OH-DPAT 0.25 nM
T1 construct: the content of 5-HT1A receptor extracted from rat hippocampi was 5.5 mg/ml; from tissue; host or cells: Wistar rat hippocampus, membrane preparation
T1 sequence (P19327 1-422): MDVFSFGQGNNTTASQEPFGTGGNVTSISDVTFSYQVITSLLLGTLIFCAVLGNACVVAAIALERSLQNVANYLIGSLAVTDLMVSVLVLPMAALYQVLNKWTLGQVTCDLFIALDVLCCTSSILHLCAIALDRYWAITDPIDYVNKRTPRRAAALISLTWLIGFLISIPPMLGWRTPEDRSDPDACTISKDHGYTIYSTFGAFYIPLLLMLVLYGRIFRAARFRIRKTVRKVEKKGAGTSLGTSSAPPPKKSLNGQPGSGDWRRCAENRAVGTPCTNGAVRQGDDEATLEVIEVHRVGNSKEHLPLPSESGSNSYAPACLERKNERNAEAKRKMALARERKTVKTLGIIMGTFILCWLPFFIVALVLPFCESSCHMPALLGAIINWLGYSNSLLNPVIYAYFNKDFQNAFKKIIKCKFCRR
Method: 1) Test tubes were placed in 37° C. reactor.
3) To the test tubes, 20 μl of the drug to be tested (selecting a concentration ranging from 10^−3-10^−10M) was added.
IC50 and Kd were used to calculate Ki value.

5-HT reuptake = biological target: T2, 5-HT reuptake (Rattus norvegicus, UniProt P31652); experiment: 5-HT reuptake inhibition in crudely produced rat synaptosomes ([3H]-5-HT); format: biochemical; conditions: [3H]-5-HT 20.3 nM, read-out: IC50 of 5-HT reuptake inhibition in rat brain
T2 construct: from tissue; host or cells: rat brain (hippocampi and cortex separated; results from cortex), crude synaptosomes
T2 sequence (P31652 whole entry): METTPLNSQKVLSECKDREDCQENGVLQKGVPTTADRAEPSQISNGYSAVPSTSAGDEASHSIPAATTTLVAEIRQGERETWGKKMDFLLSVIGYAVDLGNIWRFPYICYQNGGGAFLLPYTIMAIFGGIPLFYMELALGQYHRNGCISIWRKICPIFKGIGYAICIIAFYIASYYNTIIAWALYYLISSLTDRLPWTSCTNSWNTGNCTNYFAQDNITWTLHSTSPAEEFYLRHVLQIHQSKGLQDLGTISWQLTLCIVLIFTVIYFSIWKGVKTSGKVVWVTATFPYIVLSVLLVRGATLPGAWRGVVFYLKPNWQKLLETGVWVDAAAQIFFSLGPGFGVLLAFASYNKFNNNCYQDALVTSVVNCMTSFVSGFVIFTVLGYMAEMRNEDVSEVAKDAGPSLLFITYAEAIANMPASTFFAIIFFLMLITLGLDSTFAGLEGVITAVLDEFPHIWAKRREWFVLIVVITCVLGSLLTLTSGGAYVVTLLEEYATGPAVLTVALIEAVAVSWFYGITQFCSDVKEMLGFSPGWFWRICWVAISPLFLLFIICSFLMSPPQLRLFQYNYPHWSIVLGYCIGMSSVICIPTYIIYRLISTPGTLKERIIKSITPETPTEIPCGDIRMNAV
Method: (1) Preparation of Synaptosome Protein.
1) Rats were rapidly decapitated and the brains were removed, and hippocampi and cortex were separated on ice.
2) Same brain tissues of 3 rats were combined, to which 10 times volume of ice-bath homogenate was added, and homogenized.
3) The homogenate was centrifuged at 4° C. under 1500 g for 10 minutes and the precipitate was decanted.
4) The supernatant was centrifuged at 4° C. under 12000 g for 15 minutes and the supernatant was decanted, and the precipitate portion was a crudely produced synaptosome.
5) Washed with resuspension buffer twice and centrifuged at 4° C. under 13000 g for 10 minutes and resuspended again.
6) Protein concentration was measured by Lowrry method.
7) The synaptosome was preserved on ice, and the test was completed within 4-6 h.
1) To all tubes, the crudely produced synaptosome protein was added in an amount of 50 μg in sequence.
3) To the test tubes, the drug to be tested in various concentrations in range of 10^−3-10^−10M was added in sequence and reacted for 15 minutes. […]
7) The samples were then applied to 49-type glass fibre filters, vacuum suction filtered, washed 5 times with 10 ml ice-cooled Tris-HCl buffer. […] The radioactive intensity was measured by using LS6500 type liquid scintillation counter.
The calculated inhibition percents were used to calculate IC50 value by using Orgin7.0/GraphPad Prism 4.0 software.

mice [1] = experiment: Tail suspension test in mice; format: in vivo; conditions: acute, 1 h before test
Excerpt: 2.1.2 Tail Suspension Test in Mice
Tail suspension test in mice is an acute behavioral despair model established by Stem, et al. (1985).
1) Experimental device: an experimental frame with spacing boards which dividing the experimental frame into 2 experimental chambers (20×25×30 cm). A clamp is mounted on a through cross rod in the chamber for clamping mice tail so as to suspend the mice.
2) Experimental method: Male Kunming mice weighing 20-25 g. The mice were intragastrically administered with YL-0911 or vehicle (distilled water). After 1 h, wrap adhesive tape around the mouse's tail in position three quarters of the distance from the base of the tail and then suspend the animals by passing the suspension hook through the adhesive tape 5 cm above the table. The duration of immobility in the last 4 min of total 6 min test was recorded.

mice [2] = experiment: Novel object recognition test in mice; format: in vivo; conditions: repeated daily, tested day 8, mice
Method: Novel object recognition test is a cognitive behavior model established by Lima, et al.
1) Experimental device: a white Perspex box (60×60×16 cm), two completely identical objects, and one completely different object.
2) Experimental method: Male Kunming mice weighing 20-25 g. The mice were intragastrically administered with YL-0911 or vehicle (distilled water) for 5 days. On day 6, after treatment with YL-0911 or vehicle, each mouse was placed into the Perspex box at the same place for 5 min as habituation. On day 7, the mice were administered YL-0911 or vehicle and then individually placed in the Perspex box at the same place containing two identical objects located in the two diagonal corners for 5 minutes. On day 8, mice were tested for memory using the same procedure as day 7 except that one of the familiar objects was replaced with a novel object.

SMILES: O=c1ccccn1CC1(O)CCN(Cc2ccccc2)CC1 [Compound 1, 1-[(1-benzyl-4-hydroxypiperidin-4-yl)-methyl]-pyridin-2(1H)-one]
- Ki (5-HT1A receptor): 0.44 ± 0.32 nM
- IC50 (5-HT reuptake): 8.51 ± 0.23 nM
- Immobility time (s), tail suspension test (mice [1]; 0.625 mg/kg p.o.): 105.4 ± 24.6 s
- Immobility time (s), tail suspension test (mice [1]; 1.25 mg/kg p.o.): 93.8 ± 38.7 s
- Immobility time (s), tail suspension test (mice [1]; 5 mg/kg p.o.): 98.8 ± 45.3 s
- Recognition index (mice [2]; 0.625 mg/kg p.o.): 59.95 ± 2.74
- Recognition index (mice [2]; 1.25 mg/kg p.o.): 64.76 ± 5.02
